Measurements reported in patent US8158647B2, “Substituted pyrrolopyridines and pyrazolopyridines as kinase modulators” (SGX Pharmaceuticals, Inc., priority 2007, dated 2012).

Tests used:
[1] = molecular target: T1, ABL P210WT BAF3 cells (Homo sapiens, UniProt P00519); test: 96-well XTT cell survival assay, BaF3 ABL P210WT; assay type: cell-based; conditions: ABL P210 WT, 72 hours, read-out: CELL BIO ABL P210WT BAF3 XTT (IC50)
T1 construct: ABL P210WT BAF3; fused on or other part: P11274 (Breakpoint cluster region protein)
Protocol: (§1) MV4-11 and THP cells were maintained in Iscove's Modified Dulbecco's Medium supplemented with 10% fetal bovine serum (FBS) and penicillin/streptomycin, Ba/F3 cells were maintained in RPMI 1640 supplemented with 10% FBS, penicillin/streptomycin and 5 ng/ml recombinant mouse IL-3.
(§2) Compounds were tested in the following assays in duplicate.
(§3) 96-well XTT assay: Cells (e.g. BaF3 315I, M3511, or E255K cells) were grown in growth media containing various concentrations of compounds (duplicates) on a 96-well plate for 72 hours at 37° C. The starting cell number was 5000-8000 cells per well and volume was 120 μl. At the end of the 72-hour incubation, 40 μl of XTT labeling mixture (50:1 solution of sodium 3′-[1-(phenylamino-carbonyl)-3,4-tetrazolium]-bis(4-methoxy-6-nitro) benzene sulfonic acid hydrate and Electron-coupling reagent: PMS (N-methyl dibenzopyrazine methyl sulfate) were added to each well of the plate. After an additional 2-6 hours of incubation at 37° C., the absorbance reading at 405 nm with background correction at 650 nm was measured with a spectrophotometer.

[2] = molecular target: T2, purified and unphosphorylated T315I Abl kinase domain (ABL_T315I_0P) (Mus musculus, UniProt P00520, T315I); test: c-Abl T315I (unphosphorylated kinase domain) pyruvate kinase/lactate dehydrogenase coupled enzyme assay; assay type: biochemical; conditions: 10 μM ATP
T2 construct: The c-Abl T3151 KD (kinase domain) was purified as follows; Met-Ser-Leu (vector-derived residues) (N); made in house; host or cells: E. coli BL21(DE3) strains (Codon+RIL, or pSA0145 for the lambda phosphatase co-expression plasmid)
T2 sequence (P00520 242-493 T315I limits assumed): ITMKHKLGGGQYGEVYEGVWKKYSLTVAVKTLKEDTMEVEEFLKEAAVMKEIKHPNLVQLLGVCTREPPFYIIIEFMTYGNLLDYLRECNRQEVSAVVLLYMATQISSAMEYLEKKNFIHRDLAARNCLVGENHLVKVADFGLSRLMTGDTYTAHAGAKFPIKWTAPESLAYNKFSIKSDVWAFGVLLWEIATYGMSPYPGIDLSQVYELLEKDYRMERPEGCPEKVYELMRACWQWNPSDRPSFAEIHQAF
From the text: Although the first of these examples uses the kinase domain of a mutant form of Abl T315I (“Abl T315I KD”), the kinase assays may use various forms of mutant and wild type enzymes, including, for example, the entire protein, the kinase domain, or a portion thereof (e.g. Abl Y393F). The kinases used in the assays may also be of varying phosphorylation states. In the c-Abl example, a mutant kinase at a zero phosphorylation state was used.
c-Abl Pyruvate Kinase/Lactate Dehydrogenase Coupled Enzyme Assay
In the c-Abl Pyruvate Kinase (PK)/Lactate Dehydrogenase (LDH) Coupled Assay the protein kinase dependant phosphorylation of a substrate peptide was coupled to the oxidation of NADH. The oxidation of NADH to NAD+ was detected by monitoring a decrease in absorbance at 340 nm.
Materials: Abl substrate peptide=EAIYAAPFAKKK-OH (SEQ ID NO: 1) (Biopeptide, San Diego, Calif.); […]NADH (Sigma Cat#N-8129, FW=709.4); 2M MgCl2; 1M HEPES buffer, pH 7.5; Phosphoenolpyruvate (PEP) (Sigma Cat#P-7002, FW=234); Lactate dehydrogenase (LDH) (Worthington Biochemical Cat#2756); Pyruvate Kinase (PK) (Sigma Cat#P-9136); ATP (Sigma Cat#A-3377, FW=551); Greiner 384-well UV star plate; and purified and unphosphorylated T3151 Abl kinase domain.
Stock Solutions: 10 mM NADH (7.09 mg/ml in miliQH2O) made fresh daily; 10 mM Abl substrate peptide (13.4 mg/ml in miliQH2O) stored at −20° C.; 100 mM HEPES buffer, pH 7.5 (5 ml 1M stock+45 ml miliQH2O); 100mM MgCl2 (5 ml 2M MgCl2+95 ml dH2O); 100 mM PEP (23.4 mg/ml in dH2O) stored at −20° C.; 10mM ATP (5.51 mg/ml in dH2O) stored at −20° C. (diluted 50 μl into total of 10 ml miliQH2O daily=50 μM ATP working stock); 1000 U/ml PK (U/mg varies with lot) flash-frozen under liquid N2 and stored at −80° C.; and 1000 U/ml LDH (U/mg varies with lot) flash-frozen under liquid N2 and stored at −80° C.
Standard Assay Setup for 384-well format (50 μl reaction): 300 μM NADH; 10 mM MgCl2; 2 mM PEP; 45 U/ml PK; 60 U/ml LDH; 200 μM Abl substrate peptide; 2.5 μl test compound (in DMSO); 2 μg/ml Abl kinase domain; 10 μM ATP; 100 mM HEPES buffer. Positive controls contained DMSO with no test compound. Negative controls contained 5 μl of 0.5M EDTA (50 mM in the assay). The dephosphorylated form of the c-Abl T315I mutant was used in the biochemical screening assays. The kinase reaction was initiated at time t=0 by the addition of ATP.
Activity was measured by following the time-dependent loss of NADH by absorbance spectroscopy at 340 nm. The linear portion of the resulting progress curve was then analyzed by linear regression to get the activity in absorbance units/time, reported as the slope of that best fit line (moles/unit time can be calculated from using molar extinction coefficient for NADH at 340 nm, 6250M^−1 cm^−1).
Screening data was evaluated using the equation: Z′=1-[3*(σ++σ−)/|μ+−μ−|] (Zhang, et al., 1999 J Biomol Screening 4(2) 67-73), where μ denotes the mean and σ the standard deviation. The subscript designates positive or negative controls. The Z′ score for a robust screening assay should be ≧0.50. The typical threshold=μ+−3*σ+−. Any value that falls below the threshold was designated a “hit”.
Dose response was analyzed using the equation: y=min+{(max−min)/(1+10^[compound]−logIC50)}, where y is the observed initial slope, max=the slope in the absence of inhibitor, min=the slope at infinite inhibitor, and the IC50 is the [compound] that corresponds to ½ the total observed amplitude (Amplitude=max−min).
To measure modulation, activation, or inhibition of Abl KD, a test compound was added to the assay at a range of concentrations. Inhibitors may inhibit Abl KD activity at an IC50 in the micromolar range, the nanomolar range, or, for example, in the subnanomolar range.
An open-reading frame for c-Abl was amplified from a Mus musculus (mouse) cDNA library prepared from freshly harvested mouse liver using a commercially available kit (Invitrogen) by PCR using the following primers: […]
The c-Abl T3151 KD (kinase domain) was purified as follows. […]

[3] = molecular target: T3, ABL T315I BAF3 cells (Homo sapiens, UniProt P00519, T315I, cells depend on it); test: 96-well XTT cell survival assay, BaF3 ABL T315I; assay type: cell-based; conditions: 72 hours, read-out: CELL BIO ABL T315I BAF3 XTT (IC50)
T3 construct: ABL T315I BAF3; fused on or other part: P11274 (Breakpoint cluster region protein)
Protocol: as §1, §2, §3

Structure (SMILES) | GI50 [1] [nM] | ABL_T315I_0P (IC50) [2] | GI50 [3] [nM] | IC50 [2] [nM]
CN(C)C(=O)C(O)c1cc(-c2cnc3[nH]cc(-c4ccccc4F)c3c2Cl)cnc1N (stereo not shown) | 100 to 1000 | D (<0.01 μM) | 10 to 100 | –
NC(=O)C(O)c1cncc(-c2cnc3[nH]cc(-c4ccccc4F)c3c2Cl)c1 (stereo not shown) | > 1000 | D (<0.01 μM) | > 1000 | –
CNc1ncccc1-c1c[nH]c2ncc(-c3cncc(C(O)C(=O)N(C)C)c3)c(Cl)c12 (stereo not shown) | > 1000 | C (0.1-0.01 μM) | > 1000 | –
COc1cc(Cl)c(F)cc1-c1c[nH]c2ncc(-c3cnc(N)c(C(=O)N(C)C)c3)cc12 | < 10 | – | 10 to 100 | < 10
CN(C)C(=O)c1cncc(-c2cnc3[nH]cc(-c4ccccc4F)c3c2Cl)c1 | 100 to 1000 | D (<0.01 μM) | 100 to 1000 | –
CN(C)C(=O)c1cncc(-c2cnc3[nH]cc(-c4ccc(F)cc4)c3c2Cl)c1 | 100 to 1000 | C (0.1-0.01 μM) | > 1000 | –
CN(C)C(=O)c1cncc(-c2cnc3[nH]cc(-c4cccc(F)c4F)c3c2Cl)n1 | 100 to 1000 | D (<0.01 μM) | 100 to 1000 | –
CNC(=O)c1cncc(-c2cnc3[nH]cc(-c4ccccc4F)c3c2Cl)n1 | > 1000 | C (0.1-0.01 μM) | > 1000 | –
OC(c1cncc(-c2cnc3[nH]cc(-c4ccccc4F)c3c2Cl)c1)c1ncccc1F (stereo not shown) | 100 to 1000 | D (<0.01 μM) | 100 to 1000 | –
CN(C)C(=O)c1cc(-c2cnc3[nH]cc(-c4cc[nH]n4)c3c2Cl)cnc1N [2-Amino-5-[4-chloro-3-(1H-pyrazol-3-yl)-1H-pyrrolo[2,3-b]pyridin-5-yl]-N,N-dimethyl-nicotinamide] | > 1000 | C (0.1-0.01 μM) | > 1000 | –
CN(C)C(=O)c1cc(-c2cnc3[nH]cc(-c4cccc(F)c4F)c3c2Cl)cnc1N [2-Amino-5-[4-chloro-3-(2,3-difluoro-phenyl)-1H-pyrrolo[2,3-b]pyridin-5-yl]-N,N-dimethyl-nicotinamide] | 100 to 1000 | D (<0.01 μM) | 100 to 1000 | –
CN(C)C(=O)c1cc(-c2cnc3[nH]cc(-c4cc(F)ccc4F)c3c2Cl)cnc1N [2-Amino-5-[4-chloro-3-(2,5-difluoro-phenyl)-1H-pyrrolo[2,3-b]pyridin-5-yl]-N,N-dimethyl-nicotinamide] | 10 to 100 | D (<0.01 μM) | 100 to 1000 | –
COc1cc(C#N)ccc1-c1c[nH]c2ncc(-c3cnc(N)c(C(=O)N(C)C)c3)c(Cl)c12 [2-Amino-5-[4-chloro-3-(4-cyano-2-methoxy-phenyl)-1H-pyrrolo[2,3-b]pyridin-5-yl]-N,N-dimethyl-nicotinamide] | – | C (0.1-0.01 μM) | – | –
CN(C)C(=O)C(O)c1cncc(-c2cnc3[nH]nc(-c4ccccc4)c3c2Cl)c1 (stereo not shown) [2-[5-(4-Chloro-3-phenyl-1H-pyrazolo[3,4-b]pyridin-5-yl)-pyridin-3-yl]-2-hydroxy-N,N-dimethyl-acetamide] | – | B (1.0-0.1 μM) | – | –
COc1ccccc1-c1c[nH]c2ncc(Br)c(NCCO)c12 [2-[5-Bromo-3-(2-methoxy-phenyl)-1H-pyrrolo[2,3-b]pyridin-4-ylamino]-ethanol] | – | B (1.0-0.1 μM) | – | –
CN(C)C(=O)C(O)c1cncc(-c2cnc3[nH]nc(-c4ccccc4F)c3c2Cl)c1 (stereo not shown) [2-{5-[4-Chloro-3-(2-fluoro-phenyl)-1H-pyrazolo[3,4-b]pyridin-5-yl]-pyridin-3-yl}-2-hydroxy-N,N-dimethyl-acetamide] | – | B (1.0-0.1 μM) | – | –
CN(C)C(=O)C(=O)c1cncc(-c2cnc3[nH]cc(-c4ccc(F)cc4)c3c2Cl)c1 [2-{5-[4-Chloro-3-(4-fluoro-phenyl)-1H-pyrrolo[2,3-b]pyridin-5-yl]-pyridin-3-yl}-N,N-dimethyl-2-oxo-acetamide] | – | B (1.0-0.1 μM) | – | –
CC(C)c1ncncc1-c1c[nH]c2ncc(-c3cncc(C(O)C(=O)N(C)C)c3)c(Cl)c12 (stereo not shown) [2-{5-[4-Chloro-3-(4-isopropyl-pyrimidin-5-yl)-1H-pyrrolo[2,3-b]pyridin-5-yl]-pyridin-3-yl}-2-hydroxy-N,N-dimethyl-acetamide] | – | B (1.0-0.1 μM) | – | –
COc1ccccc1-c1c[nH]c2ncc(-c3cncc(C(O)C(=O)N(C)C)c3)c(N(C)C)c12 (stereo not shown) [2-{5-[4-Dimethylamino-3-(2-methoxy-phenyl)-1H-pyrrolo[2,3-b]pyridin-5-yl]-pyridin-3-yl}-2-hydroxy-N,N-dimethyl-acetamide] | – | B (1.0-0.1 μM) | – | –
COc1ccccc1-c1c[nH]c2ncc(-c3cnn(C)c3)c(N)c12 [3-(2-Methoxy-phenyl)-5-(1-methyl-1H-pyrazol-4-yl)-1H-pyrrolo[2,3-b]pyridin-4-ylamine] | – | B (1.0-0.1 μM) | – | –
CSc1c(Br)cnc2[nH]cc(I)c12 [5-Bromo-3-iodo-4-methylsulfanyl-1H-pyrrolo[2,3-b]pyridine] | – | A (>1.0 μM) | – | –
COc1ccccc1-c1c[nH]c2ncc(Br)c(Cl)c12 [5-Bromo-4-chloro-3-(2-methoxy-phenyl)-1H-pyrrolo[2,3-b]pyridine] | – | C (0.1-0.01 μM) | – | –
